System: HBV
Assay: HBV-DNA Antiviral Assay Using HepG2.117 Cells (intracellular HBV DNA by qPCR)
Type: cell-based, hepatitis B virus (genotype D)
Conditions: Hepatitis B virus, HepG2.117
In short: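 Endpoint: qPCR copy number of intracellular HBV DNA after 3-day compound exposure, with inhibition set relative to the 2% DMSO control. The cells were doxycycline-free HepG2.117 carrying a Tet-off genotype D genome, dosed at nine 4-fold dilutions. A duplicate plate gave ATP-based viability (CC50).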

Structure (SMILES)	EC50 [µM]
COc1ccc([C@@H](C)NC(=O)c2c3n(c(=O)n2-c2ccc(OC4CC4)cc2)C[C@H](C)N(C(=O)c2ccc(Br)c(Cl)c2)C3)cc1 (racemic) [Example 450, (6SR)-7-(4-bromo-3-chloro-benzoyl)-2-[4-(cyclopropoxy)phenyl]-N-[(1R)-1-(4-methoxyphenyl)ethyl]-6-methyl-3-oxo-6,8-dihydro-5H-imidazo[1,5-a]pyrazine-1-carobxamide]	< 0.1
O=C(NCc1ccccc1)c1c2n(c(=O)n1-c1ccc3sccc3c1)CCN(C(=O)c1ccc(Br)c(Cl)c1)C2 [Example 248]	0.1 to 0.5
COc1ccc(CNC(=O)c2c3n(c(=O)n2-c2ccc(OCC(F)(F)F)cc2)CCN(C(=O)c2ccc(Br)c(Cl)c2)C3)c(OC)c1 [Example 229, 7-(4-bromo-3-chloro-benozyl)-N-[(2,4-dimethoxyphenyl)methyl]-3-oxo-2-[4-(2,2,2-trifluoroethoxy)phenyl]-6,8-dihydro-5H-imidazo[1,5-a]pyrazine-1-carboxamide]	< 0.1
C[C@H](c1ccccc1)N1C[C@@H](O)Cn2c(c3n(c2=O)CCN(C(=O)c2ccc(Br)c(Cl)c2)C3)C1=O (stereo in doubt) [Example 202, (11RS)-4-(4-bromo-3-chloro-benzoyl)-11-hydroxy-13-[(1R)-1-phenylethyl]-4,7,9,13-tetrazatricyclo[7.5.0.0^2,7]tetradec-1-ene-8.14-dione]	0.1 to 0.5
N#Cc1cc(C(=O)N2CCn3c(c(C(=O)NCc4ccccc4-c4ncco4)n(-c4ccc(OC5CC5)cc4)c3=O)C2)ccc1Br [Example 433, 7-(4-bromo-3-cyano-benzoyl)-2-[4-(cyclopropxy)phenyl]-N-[(2-oxazol-2-ylphenyl)methyl]-3-oxo-6,8-dihydro-5H-imidazo[1,5-a]pyrazine-1-carboxamide]	0.1 to 0.5
C[C@H]1Cn2c(c3n(c2=O)C[C@H](F)CN(Cc2ccccc2)C3=O)CN1C(=O)c1ccc(Br)c(Cl)c1 (stereo in doubt) [Example 372, 13-benzyl-4-(4-bromo-3-chlorobenzoyl)-11-fluoro-4,7,9,13-tetraazatricyclo[7.5.0.0^[2,7]]tetradec-1-ene-8,14-dione]	0.1 to 0.5
COc1ccc(-n2c(C(=O)N[C@H](C)C3CC3)c3n(c2=O)CCN(C(=O)c2ccc(Cl)c(Cl)c2)C3)cc1 (racemic) [Example 95, 7-(3,4-dichlorobenzoyl)-2-(4-methoxyphenyl)-3-oxo-N-[rac-(1R)-1-cyclopropylethyl]-6,8-dihydro-5H-imidazo[1,5-a]pyrazine-1-carboxamide]	> 5
CNC(=O)c1ccc(-n2c(C(=O)NCc3ccccc3)c3n(c2=O)CCN(C(=O)c2ccc(Br)c(Cl)c2)C3)cc1 [Example 36, N-benzyl-7-(4-bromo-3-chloro-benzoyl)-2-[4-(methylcarbamoyl)phenyl]-3-oxo-6,8-dihydro-5H-imidazo[1,5-a]pyrazine-1-carboxamide]	> 5
CC(C)Oc1ccc(-n2c(C(=O)NCc3ccc(C(F)F)cc3)c3n(c2=O)CCN(C(=O)c2ccc(Br)c(Cl)c2)C3)cc1 [Example 243, 7-(4-bromo-3-chloro-benzoyl)-N-[[4-(difluoromethyl)phenyl]methyl]-2-(4-isopropoxyphenyl)-3-oxo-6,8-dihydro-5H-imidazo[1,5-a]pyrazine-1-carboxamide]	0.1 to 0.5
CC(C)Oc1ccc(-n2c(C(=O)NCc3ccc4[nH]cnc4c3)c3n(c2=O)CCN(C(=O)c2ccc(Br)c(Cl)c2)C3)cc1 [Example 219, N-(1H-benzimidazol-5-ylmethyl)-7-(4-bromo-3-chloro-benzoyl)-2-(4-isopropoxyphenyl)-3-oxo-6,8-dihdyro-5H-imidazo[1,5-a]pyrazine-1-carboxamide]	0.5 to 5
COc1ccc(-n2c(C(=O)NCc3ccc4occc4c3)c3n(c2=O)CCN(C(=O)c2ccc(Cl)c(Cl)c2)C3)cc1 [Example 66, N-(benzofuran-5-ylmethyl)-7-(3,4-dichlorobenzoyl)-2-(4-methoxyphenyl)-3-oxo-6,8-dihydro-5H-imidazo[1,5-a]pyrazine-1-carboxamide]	0.5 to 5
COc1cc2occc2cc1CNC(=O)c1c2n(c(=O)n1-c1ccc(OC(C)C)cc1)CCN(C(=O)c1ccc(Br)c(Cl)c1)C2 [Example 255, 7-(4-bromo-3-chloro-benzoyl)-2-(4-isopropoxyphenyl)-N-[(6-methoxybenzofuran-5-yl)methyl]-3-oxo-6,8-dihydro-5H-imidazo[1,5-a]pyrazine-1-carboxamide]	0.1 to 0.5
C[C@@H](NC(=O)c1c2n(c(=O)n1-c1ccc(OC3COC3)cc1)CCN(C(=O)c1ccc(Br)c(Cl)c1)C2)c1ccccc1 (stereo in doubt) [Example 170, 7-(4-bromo-3-chloro-benzoyl)-2-[4-(oxetan-3-yloxy)phenyl]-3-oxo-N-[rac-(1R)-1-phenylethyl]-6,8-dihydro-5H-imidazo[1,5-a]pyrazine-1-carboxamide]	0.1 to 0.5
COc1ccc(-n2c(C(=O)NCc3ccc(C#N)cc3)c3n(c2=O)CCN(C(=O)c2ccc(Br)c(Cl)c2)C3)cc1 [Example 180, 7-(4-bromo-3-chloro-benzoyl)-N-[(4-cyanophenyl)methyl]-2-(4-methoxyphenyl)-3-oxo-6,8-dihydro-5H-imidazo[1,5-a]pyrazine-1-carboxamide]	0.5 to 5
C[C@H](Oc1ccc(CNC(=O)c2c3n(c(=O)n2-c2ccc(OCC(F)(F)F)cc2)CCN(C(=O)c2ccc(Br)c(Cl)c2)C3)c(F)c1)C(N)=O (stereo in doubt) [Example 353, 7-(4-bromo-3-chloro-benzoyl)-N-[[2-fluoro-4-[rac-(1S)-2-amino-1-methyl-2-oxo-ethoxy]phenyl]methyl]-3-oxo-2-[4-(2,2,2-trifluoroethoxy)phenyl]-6,8-dihydro-5H-imidazo[1,5-a]pyrazine-1-carboxamide]	0.5 to 5
O=C(NC1(c2ccccc2)CC1)c1c2n(c(=O)n1-c1ccccc1)CCN(C(=O)c1ccc(Br)c(Cl)c1)C2 [Example 31, 7-(4-bromo-3-chloro-benzoyl)-3-oxo-2-phenyl-N-(1-phenylcyclopropyl)-6,8-dihydro-5H-imidazo[1,5-a]pyrazine-1-carboxamide]	> 5
C[C@@H](Oc1ccc(CNC(=O)c2c3n(c(=O)n2-c2ccc(OCC(F)(F)F)cc2)CCN(C(=O)c2ccc(Br)c(Cl)c2)C3)c(F)c1)C(N)=O (stereo in doubt) [Example 354, 7-(4-bromo-3-chloro-benozyl)-N-[[2-fluoro-4-[rac-(1R)-2-amino-1-methyl-2-oxo-ethoxy]phenyl]methyl]-3-oxo-2-[4-(2,2,2-trifluoroethoxy)phenyl]-6,8-dihydro-5H-imidazo[1,5-a]pyrazine-1-carboxamide]	0.5 to 5
C[C@@H](NC(=O)c1c2n(c(=O)n1C1CC1)CCN(C(=O)c1ccc(Br)c(Cl)c1)C2)c1ccccc1 (stereo in doubt) [Example 189, 7-(4-bromo-3-chloro-benzoyl)-2-cyclopropyl-3-oxo-N-[rac-(1R)-1-phenylethyl]-6,8-dihydro-5H-imidazo[1,5-a]pyrazine-1-carboxamide]	0.5 to 5
CC(C)Oc1ccc(-n2c(-c3ncc(-c4ccccc4)o3)c3n(c2=O)CCN(C(=O)c2ccc(Br)c(Cl)c2)C3)cc1 [Example 197, 7-(4-bromo-3-chloro-benzoyl)-2-(4-isopropoxyphenyl)-1-(5-phenyloxazol-2-yl)-6,8-dihydro-5H-imidazo[1,5-a]pyrazin-3-one]	> 5
N#Cc1cc(C(=O)N2CCn3c(c(C(=O)NCc4ccccc4-c4ncccn4)n(-c4ccc(OC5CC5)cc4)c3=O)C2)ccc1Br [Example 432, 7-(4-bromo-3-cyano-benzoyl)-2-[4-(cyclopropoxy)phenyl]-3-oxo-N-[(2-pyrimidin-2-ylphenyl)methyl]-6,8-dihydro-5H-imidazo[1,5-a]pyrazine-1-carboxamide]	0.1 to 0.5
COc1ccc(-n2c(C(=O)NCc3ccccc3)c3n(c2=O)CCN(C(=O)c2ccc(Cl)c(Cl)c2)C3)cc1Cl [Example 50, N-benzyl-2-(3-chloro-4-methoxy-phenyl)-7-(3,4-dichlorobenzoyl)-3-oxo-6,8-dihydro-5H-imidazo[1,5-a]pyrazine-1-carboxamide]	> 5
COc1ccc(-n2c(C(=O)NCc3ccc(OCC(N)=O)cc3)c3n(c2=O)CCN(C(=O)c2ccc(Br)c(Cl)c2)C3)cc1 [Example 205, N-[[4-(2-amino-2-oxo-ethoxy)phenyl]methyl]-7-(4-bromo-3-chloro-benzoyl)-2-(4-methoxyphenyl)-3-oxo-6,8-dihydro-5H-imidazo[1,5-a]pyrazine-1-carboxamide]	0.5 to 5
O=C(NCc1cccc2nccnc12)c1c2n(c(=O)n1-c1ccc(OCC(F)(F)F)cc1)CCN(C(=O)c1ccc(Br)c(Cl)c1)C2 [Example 277, 7-(4-bromo-3-chloro-benzoyl)-3-oxo-N-(quinoxalin-5-ylmethyl)-2-[4-(2,22,- trifluoroethoxy)phenyl]-6,8-dihydro-5H-imidazo[1,5-a]pyrazine-1-carboxamide]	< 0.1
CC[C@@H](NC(=O)c1c2n(c(=O)n1-c1ccc(OC)cc1)CCN(C(=O)c1ccc(Br)c(Cl)c1)C2)c1ccccc1 (stereo in doubt) [Example 150, 7-(4-bromo-3-chloro-benzoyl)-2-(4-methoxyphenyl)-3-oxo-N-[rac-(1R)-1-phenylpropyl]-6,8-dihydro-5H-imidazo[1,5-a]pyrazine-1-carboxamide]	0.1 to 0.5
COc1ccc([C@@H](C)NC(=O)c2c3n(c(=O)n2-c2ccc(-n4cccn4)cc2)CCN(C(=O)c2ccc(Br)c(Cl)c2)C3)cc1 [Example 454, 7-(4-bromo-3-chloro-benzoyl)-N-[(1R)-1-(4-methoxyphenyl)ethyl]-3-oxo-2-(4-pyrazol-1-ylphenyl)-6,8-dihydro-5H-imidazo[1,5-a]pyrazine-1-carboxamide]	0.1 to 0.5
Cc1ccnn1-c1ccc(-n2c(C(=O)NCc3ccccc3)c3n(c2=O)CCN(C(=O)c2ccc(Br)c(Cl)c2)C3)cc1 [Example 456, N-benzyl-7-(4-bromo-3-chloro-benzoyl)-2-[4-(5-methylpyrazol-1-yl)phenyl]-3-oxo-6,8-dihydro-5H-imidazo[1,5-a]pyrazine-1-carboxamide]	0.5 to 5

Reference: patent US11591341B2 (ALIGOS THERAPEUTICS, INC., priority 2019, dated 2023)
